Experimental data: patent US20240043427A1 (Gilead Sciences, Inc., priority 2020, published 2024)

Legend:
CD73 [1] = target: T1, CD73 (Homo sapiens (Human), UniProt P21589); assay: MDA-MB-231 Cell Based CD73 Activity Assay (DMEM); conditions: MDA-MB-231-GFP cells, DMEM medium with 10% human plasma, 200 uM AMP
CD73 [2] = target: T1, CD73; assay type: biochemical; conditions: 1 mM NaH2PO4 in enzyme buffer, CD73 0.3 nM, AMP 15 uM

T1 sequence (P21589 27-574): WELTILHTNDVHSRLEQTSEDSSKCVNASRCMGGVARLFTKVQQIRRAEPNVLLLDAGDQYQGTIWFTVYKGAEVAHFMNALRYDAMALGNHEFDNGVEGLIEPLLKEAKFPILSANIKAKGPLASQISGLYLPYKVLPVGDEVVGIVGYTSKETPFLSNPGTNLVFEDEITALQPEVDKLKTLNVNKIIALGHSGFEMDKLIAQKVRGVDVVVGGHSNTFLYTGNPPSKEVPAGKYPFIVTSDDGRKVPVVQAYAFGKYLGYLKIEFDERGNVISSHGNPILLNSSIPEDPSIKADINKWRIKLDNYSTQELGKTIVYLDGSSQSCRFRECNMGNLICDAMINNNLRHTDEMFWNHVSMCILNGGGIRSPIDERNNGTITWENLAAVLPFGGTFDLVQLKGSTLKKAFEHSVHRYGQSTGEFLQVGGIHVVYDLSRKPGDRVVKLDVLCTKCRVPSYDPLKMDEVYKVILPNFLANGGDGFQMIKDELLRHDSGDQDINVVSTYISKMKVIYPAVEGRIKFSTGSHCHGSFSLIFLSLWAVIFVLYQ

For `O=c1[nH]cc(-c2cc(N3CC(F)(CO)C3)c3nccn3n2)c(=O)[nH]1` [Example 423, 5-(8-(3-fluoro-3-(hydroxymethyl)azetidin-1-yl)imidazo[1,2-b]pyridazin-6-yl)pyrimidine-2,4(1H,3H)-dione], the EC50 (CD73 [1]) was 76.4 nM and the IC50 (CD73 [2]) was 39.2 nM.
Molecule `N#Cc1cc(F)c([C@H]2C[C@@H]2c2cc(-c3c[nH]c(=O)[nH]c3=O)nn3ccnc23)c(F)c1` [Example 424, 4-((1S,2S)-2-(6-(2,4-dioxo-1,2,3,4-tetrahydropyrimidin-5-yl)imidazo[1,2-b]pyridazin-8-yl)cyclopropyl)-3,5-difluorobenzonitrile] has an EC50 (CD73 [1]) of 4.1 nM and an IC50 (CD73 [2]) of 1.64 nM.
With `N#Cc1cc(F)c([C@H]2C[C@@H]2c2cc(-c3c[nH]c(=O)[nH]c3=O)nn3c(F)cnc23)c(F)c1` [Example 425, 4-((1S,2S)-2-(6-(2,4-dioxo-1,2,3,4-tetrahydropyrimidin-5-yl)-3-fluoroimidazo[1,2-b]pyridazin-8-yl)cyclopropyl)-3,5-difluorobenzonitrile] the EC50 (CD73 [1]) was 5.63 nM and the IC50 (CD73 [2]) was 1.63 nM.
`CC1(C)CN(c2cc(-c3c[nH]c(=O)[nH]c3=O)nn3ncnc23)CC1(F)F` [Example 426, 5-(8-(3,3-difluoro-4,4-dimethylpyrrolidin-1-yl)-[1,2,4]triazolo[1,5-b]pyridazin-6-yl)pyrimidine-2,4(1H,3H)-dione] showed an EC50 (CD73 [1]) of 4.5 nM and an IC50 (CD73 [2]) of 0.23 nM.
`O=c1[nH]cc(-c2cc([C@H]3C[C@@H]3c3ccc(C(F)(F)F)cc3)c3ncnn3n2)c(=O)[nH]1` [Example 427, 5-(8-((1S,2S)-2-(4-(trifluoromethyl)phenyl)cyclopropyl)-[1,2,4]triazolo[1,5-b]pyridazin-6-yl)pyrimidine-2,4(1H,3H)-dione] gave an EC50 (CD73 [1]) of 7.4 nM and an IC50 (CD73 [2]) of 0.48 nM.
`N#Cc1cc(F)c([C@H]2C[C@@H]2c2cc(-c3c[nH]c(=O)[nH]c3=O)nn3ncnc23)c(F)c1` [Example 428, 4-((1S,2S)-2-(6-(2,4-dioxo-1,2,3,4-tetrahydropyrimidin-5-yl)-[1,2,4]triazolo[1,5-b]pyridazin-8-yl)cyclopropyl)-3,5-difluorobenzonitrile] showed an EC50 (CD73 [1]) of 14.7 nM and an IC50 (CD73 [2]) of 1.38 nM.
Molecule `O=c1[nH]cc(-c2cc(N3CC[C@@H](OC(F)(F)F)C3)c3ncnn3n2)c(=O)[nH]1` [Example 429, (R)-5-(8-(3-(trifluoromethoxy)pyrrolidin-1-yl)-[1,2,4]triazolo[1,5-b]pyridazin-6-yl)pyrimidine-2,4(1H,3H)-dione] has an EC50 (CD73 [1]) of 8.89 nM and an IC50 (CD73 [2]) of 2.22 nM.
`O=c1[nH]cc(-c2cc([C@H]3C[C@@H]3c3ccc4c(cnn4CC(F)(F)F)c3)c3ncnn3n2)c(=O)[nH]1` [Example 430, 5-(8-((1S,2S)-2-(1-(2,2,2-trifluoroethyl)-1H-indazol-5-yl)cyclopropyl)-[1,2,4]triazolo[1,5-b]pyridazin-6-yl)pyrimidine-2,4(1H,3H)-dione] showed an EC50 (CD73 [1]) of 0.71 nM and an IC50 (CD73 [2]) of 0.18 nM.
`O=c1[nH]cc(-c2cc([C@H]3C[C@@H]3c3ccc4cnn(CC(F)(F)F)c4c3)c3ncnn3n2)c(=O)[nH]1` [Example 431, 5-(8-((1S,2S)-2-(1-(2,2,2-trifluoroethyl)-1H-indazol-6-yl)cyclopropyl)-[1,2,4]triazolo[1,5-b]pyridazin-6-yl)pyrimidine-2,4(1H,3H)-dione] showed an EC50 (CD73 [1]) of 0.13 nM and an IC50 (CD73 [2]) of 0.15 nM.
With `O=c1[nH]cc(-c2cc(N3CC(F)(C(F)(F)F)C3)c3ncnn3n2)c(=O)[nH]1` [Example 433, 5-(8-(3-fluoro-3-(trifluoromethyl)azetidin-1-yl)-[1,2,4]triazolo[1,5-b]pyridazin-6-yl)pyrimidine-2,4(1H,3H)-dione] the EC50 (CD73 [1]) was 44.6 nM and the IC50 (CD73 [2]) was 9.71 nM.
For `O=c1[nH]cc(-c2cc(N3CC(Oc4ccc(C(F)(F)F)cn4)(C(F)(F)F)C3)c3nccn3n2)c(=O)[nH]1` [Example 434, 5-(8-(3-(trifluoromethyl)-3-((5-(trifluoromethyl)pyridin-2-yl)oxy)azetidin-1-yl)imidazo[1,2-b]pyridazin-6-yl)pyrimidine-2,4(1H,3H)-dione], the EC50 (CD73 [1]) was 14.4 nM and the IC50 (CD73 [2]) was 2.78 nM.
Molecule `O=c1[nH]cc(-c2cc(N3CC(F)(COc4ccc(C(F)(F)F)cn4)C3)c3nccn3n2)c(=O)[nH]1` [Example 435, 5-(8-(3-fluoro-3-(((5-(trifluoromethyl)pyridin-2-yl)oxy)methyl)azetidin-1-yl)imidazo[1,2-b]pyridazin-6-yl)pyrimidine-2,4(1H,3H)-dione] has an EC50 (CD73 [1]) of 66 nM and an IC50 (CD73 [2]) of 6 nM.
`O=C(NCC(F)(F)F)OCC1(F)CN(c2cc(-c3c[nH]c(=O)[nH]c3=O)nn3ccnc23)C1` [Example 437, (1-(6-(2,4-dioxo-1,2,3,4-tetrahydropyrimidin-5-yl)imidazo[1,2-b]pyridazin-8-yl)-3-fluoroazetidin-3-yl)methyl (2,2,2-trifluoroethyl)carbamate] was tested, and the EC50 (CD73 [1]) was 43.6 nM and the IC50 (CD73 [2]) was 12.8 nM.
With `CC(C)NC(=O)OCC(F)(F)COc1cc(-c2c[nH]c(=O)[nH]c2=O)nn2ncnc12` [Example 438, 3-((6-(2,4-dioxo-1,2,3,4-tetrahydropyrimidin-5-yl)-[1,2,4]triazolo[1,5-b]pyridazin-8-yl)oxy)-2,2-difluoropropyl isopropylcarbamate] the EC50 (CD73 [1]) was 0.1 nM and the IC50 (CD73 [2]) was 0.14 nM.
`O=c1[nH]cc(-c2cc([C@H]3C[C@@H]3c3ccc(Cl)cn3)c3ncnn3n2)c(=O)[nH]1` [Example 439, 5-(8-((1S,2S)-2-(5-chloropyridin-2-yl)cyclopropyl)-[1,2,4]triazolo[1,5-b]pyridazin-6-yl)pyrimidine-2,4(1H,3H)-dione] was tested, and the EC50 (CD73 [1]) was 2.63 nM and the IC50 (CD73 [2]) was 0.77 nM.
Molecule `CC1(C)CN(c2cc(-c3c[nH]c(=O)[nH]c3=O)nn3c(F)c(C4CC4)nc23)CC1(F)F` [Example 440, 5-(2-cyclopropyl-8-(3,3-difluoro-4,4-dimethylpyrrolidin-1-yl)-3-fluoroimidazo[1,2-b]pyridazin-6-yl)pyrimidine-2,4(1H,3H)-dione] has an EC50 (CD73 [1]) of 140 nM and an IC50 (CD73 [2]) of 38.2 nM.
Molecule `CC1(C)CN(c2cc(-c3c[nH]c(=O)[nH]c3=O)nn3cc(C4(C(F)(F)F)CC4)nc23)CC1(F)F` [Example 441, 5-(8-(3,3-difluoro-4,4-dimethylpyrrolidin-1-yl)-2-(1-(trifluoromethyl)cyclopropyl)imidazo[1,2-b]pyridazin-6-yl)pyrimidine-2,4(1H,3H)-dione] has an EC50 (CD73 [1]) of 239 nM and an IC50 (CD73 [2]) of 46.3 nM.
Molecule `O=c1[nH]cc(-c2cc(N3CC4CCCC43)c3nccn3n2)c(=O)[nH]1` (stereo not shown) [Example 442, 5-(8-(6-azabicyclo[3.2.0]heptan-6-yl)imidazo[1,2-b]pyridazin-6-yl)pyrimidine-2,4(1H,3H)-dione] has an EC50 (CD73 [1]) of 19.6 nM and an IC50 (CD73 [2]) of 6.46 nM.
For `O=c1[nH]cc(-c2cc(N3CC(CC(F)F)C3)c3nccn3n2)c(=O)[nH]1` [Example 443, 5-(8-(3-(2,2-difluoroethyl)azetidin-1-yl)imidazo[1,2-b]pyridazin-6-yl)pyrimidine-2,4(1H,3H)-dione], the EC50 (CD73 [1]) was 188 nM and the IC50 (CD73 [2]) was 157 nM.
In the case of `CC1(CC(F)F)CN(c2cc(-c3c[nH]c(=O)[nH]c3=O)nn3ccnc23)C1` [Example 444, 5-(8-(3-(2,2-difluoroethyl)-3-methylazetidin-1-yl)imidazo[1,2-b]pyridazin-6-yl)pyrimidine-2,4(1H,3H)-dione], the EC50 (CD73 [1]) is reported as 356 nM and the IC50 (CD73 [2]) is reported as 71 nM.
Molecule `CC1(CC(F)(F)F)CN(c2cc(-c3c[nH]c(=O)[nH]c3=O)nn3ccnc23)C1` [Example 445, 5-(8-(3-methyl-3-(2,2,2-trifluoroethyl)azetidin-1-yl)imidazo[1,2-b]pyridazin-6-yl)pyrimidine-2,4(1H,3H)-dione] has an EC50 (CD73 [1]) of 256 nM and an IC50 (CD73 [2]) of 148 nM.
`O=c1[nH]cc(-c2cc(N3CC(C45CC(C4)C5)C3)c3nccn3n2)c(=O)[nH]1` [Example 446, 5-(8-(3-(bicyclo[1.1.1]pentan-1-yl)azetidin-1-yl)imidazo[1,2-b]pyridazin-6-yl)pyrimidine-2,4(1H,3H)-dione] was tested, and the EC50 (CD73 [1]) was 1100 nM and the IC50 (CD73 [2]) was 91 nM.
`O=c1[nH]cc(-c2cc(N3CC(OCC(F)(F)F)C3)c3nccn3n2)c(=O)[nH]1` [Example 447, 5-(8-(3-(2,2,2-trifluoroethoxy)azetidin-1-yl)imidazo[1,2-b]pyridazin-6-yl)pyrimidine-2,4(1H,3H)-dione] was tested, and the EC50 (CD73 [1]) was 718 nM and the IC50 (CD73 [2]) was greater than 250 nM.
Molecule `O=c1[nH]cc(-c2cc(N3CC4(CC(C(F)F)C4)C3)c3nccn3n2)c(=O)[nH]1` [Example 448, 5-(8-(6-(difluoromethyl)-2-azaspiro[3.3]heptan-2-yl)imidazo[1,2-b]pyridazin-6-yl)pyrimidine-2,4(1H,3H)-dione] has an EC50 (CD73 [1]) of 1360 nM and an IC50 (CD73 [2]) of 194 nM.
`O=c1[nH]cc(-c2cc(N3CC4(C3)CC(F)(F)CO4)c3nccn3n2)c(=O)[nH]1` [Example 449, 5-(8-(7,7-difluoro-5-oxa-2-azaspiro[3.4]octan-2-yl)imidazo[1,2-b]pyridazin-6-yl)pyrimidine-2,4(1H,3H)-dione] gave an EC50 (CD73 [1]) of 473 nM and an IC50 (CD73 [2]) of 132 nM.
In the case of `O=c1[nH]cc(-c2cc(N3CC(Cc4ccc(F)cc4F)C3)c3nccn3n2)c(=O)[nH]1` [Example 450, 5-(8-(3-(2,4-difluorobenzyl)azetidin-1-yl)imidazo[1,2-b]pyridazin-6-yl)pyrimidine-2,4(1H,3H)-dione], the EC50 (CD73 [1]) is reported as 250 nM and the IC50 (CD73 [2]) is reported as 230 nM.
In the case of `O=c1[nH]cc(-c2cc(N3CC4CCCCC43)c3nccn3n2)c(=O)[nH]1` (stereo not shown) [Example 451, 5-(8-(7-azabicyclo[4.2.0]octan-7-yl)imidazo[1,2-b]pyridazin-6-yl)pyrimidine-2,4(1H,3H)-dione], the EC50 (CD73 [1]) is reported as 167 nM and the IC50 (CD73 [2]) is reported as 67.6 nM.
Molecule `O=c1[nH]cc(-c2cc(N3CC[C@H](CC(F)F)C3)c3nccn3n2)c(=O)[nH]1` [Example 454, (R)-5-(8-(3-(2,2-difluoroethyl)pyrrolidin-1-yl)imidazo[1,2-b]pyridazin-6-yl)pyrimidine-2,4(1H,3H)-dione] has an EC50 (CD73 [1]) of 50.6 nM and an IC50 (CD73 [2]) of 28.7 nM.
Molecule `O=c1[nH]cc(-c2cc(N3CC(F)(C(F)(F)F)C3)c3ncc(Cl)n3n2)c(=O)[nH]1` [Example 455, 5-(3-chloro-8-(3-fluoro-3-(trifluoromethyl)azetidin-1-yl)imidazo[1,2-b]pyridazin-6-yl)pyrimidine-2,4(1H,3H)-dione] has an EC50 (CD73 [1]) of 46 nM and an IC50 (CD73 [2]) of 14.9 nM.
